We go through 19 molecules from ChEMBL document CHEMBL4387753 (Bioorg Med Chem, 2019).

The structures appear in SMILES notation. Converted amounts (≈) assume the structure as drawn.

What all share (assay type): functional
Test [1] deals with Staphylococcus aureus. The test can be described thus: Antibacterial activity against penicillin-resistant Staphylococcus aureus clinical isolate incubated for 24 hrs by CLSI protocol based broth microdilution method.
Another test concerns Escherichia coli. The test can be described thus: Antibacterial activity against Escherichia coli ATCC 25922 incubated for 24 hrs by CLSI protocol based broth microdilution method. The note with it: ATCC 25922, 24 h. (In general: In broth dilution the organism is exposed to a series of concentrations in liquid medium.)
Another test deals with Bacillus subtilis. The test can be described thus: Antibacterial activity against Bacillus subtilis ATCC 9372 incubated for 24 hrs by CLSI protocol based broth microdilution method. The note with it: ATCC 9372, 24 h.
In test [2] the test system is Staphylococcus aureus. The test can be described thus: Antibacterial activity against Staphylococcus aureus clinical isolate incubated for 24 hrs by CLSI protocol based broth microdilution method.
In test [3] the test system is Staphylococcus aureus. The test can be described thus: Antibacterial activity against methicillin-resistant Staphylococcus aureus ATCC 43300 incubated for 24 hrs by CLSI protocol based broth microdilution method. The note with it: ATCC 43300, 24 h.
For a further test, the system named is Pseudomonas aeruginosa. The test can be described thus: Antibacterial activity against Pseudomonas aeruginosa ATCC 27853 incubated for 24 hrs by CLSI protocol based broth microdilution method. The note with it: ATCC 27853, 24 h.
The test system of a further test is Bacillus pumilus. The test can be described thus: Antibacterial activity against Bacillus pumilus CMCC63202 incubated for 24 hrs by CLSI protocol based broth microdilution method. The note with it: CMCC63202, 24 h.
Test [4] relates to Staphylococcus aureus. As to the kind of experiment: Antibacterial activity against Staphylococcus aureus ATCC 25923 incubated for 24 hrs by CLSI protocol based broth microdilution method. The note with it: ATCC 25923, 24 h.

In general, MIC refers to the smallest concentration in the dilution series that meets the test's criterion for growth inhibition. A lower MIC goes with a more susceptible organism. For `CC(C)(C)c1ccc(-n2nc(COc3ccc(F)c(C(N)=O)c3F)oc2=O)cc1`, the MIC was 16 mg/L (≈ 39.7 µM) against Staphylococcus aureus [1]; greater than 64 mg/L in the test with Escherichia coli; 1 mg/L (≈ 2.48 µM) in the test with Bacillus subtilis; 16 mg/L (≈ 39.7 µM) against Staphylococcus aureus [2]; 8 mg/L (≈ 19.8 µM) against Staphylococcus aureus [3]; greater than 64 mg/L against Pseudomonas aeruginosa. Also, the minimum inhibitory concentration (MIC) in the test on Bacillus pumilus is 2 mg/L (≈ 4.96 µM); in the test with Staphylococcus aureus [4], 8 mg/L (≈ 19.8 µM).
In the case of `NC(=O)c1c(F)ccc(OCc2nn(-c3ccc(Cl)cc3Cl)c(=O)o2)c1F`, the MIC in the test with Staphylococcus aureus [1] was 4 mg/L (≈ 9.61 µM); in the test with Escherichia coli it was greater than 64 mg/L; in the test with Bacillus subtilis it was 1 mg/L (≈ 2.4 µM); in the test on Staphylococcus aureus [2], 4 mg/L (≈ 9.61 µM); with Staphylococcus aureus [3] it was 2 mg/L (≈ 4.81 µM); with Pseudomonas aeruginosa, greater than 64 mg/L. Moreover, the figures for the minimum inhibitory concentration (MIC) in the test with Bacillus pumilus and against Staphylococcus aureus [4] were 0.5 mg/L (≈ 1.2 µM) and 4 mg/L (≈ 9.61 µM), respectively.
Take `Cc1cccc(-n2nc(COc3ccc(F)c(C(N)=O)c3F)oc2=O)c1`: the minimal inhibitory concentration (MIC) in the test with Staphylococcus aureus [1] was greater than 64 mg/L; against Escherichia coli it was greater than 64 mg/L; with Bacillus subtilis, 16 mg/L (≈ 44.3 µM); in the test on Staphylococcus aureus [2] it was 64 mg/L (≈ 177 µM); with Staphylococcus aureus [3], 64 mg/L (≈ 177 µM); against Pseudomonas aeruginosa, greater than 64 mg/L. For the same molecule, the minimal inhibitory concentration (MIC) against Bacillus pumilus and against Staphylococcus aureus [4] was 64 mg/L (≈ 177 µM) throughout.
As for `NC(=O)c1c(F)ccc(OCc2nn(-c3cccc(Cl)c3)c(=O)o2)c1F`, the MIC against Staphylococcus aureus [1] is greater than 64 mg/L; with Escherichia coli, greater than 64 mg/L; against Bacillus subtilis, 8 mg/L (≈ 21 µM); in the test on Staphylococcus aureus [2], greater than 64 mg/L; against Staphylococcus aureus [3], greater than 64 mg/L; in the test on Pseudomonas aeruginosa it was greater than 64 mg/L. The MIC against Bacillus pumilus and against Staphylococcus aureus [4] was greater than 64 mg/L each time.
As for `NC(=O)c1c(F)ccc(OCc2nn(-c3ccc(Cl)c(Cl)c3)c(=O)o2)c1F`, the MIC against Staphylococcus aureus [1] is greater than 64 mg/L; with Escherichia coli it was greater than 64 mg/L; in the test with Bacillus subtilis, 4 mg/L (≈ 9.61 µM); with Staphylococcus aureus [2] it was 64 mg/L (≈ 154 µM); with Staphylococcus aureus [3] it was 64 mg/L (≈ 154 µM); against Pseudomonas aeruginosa, greater than 64 mg/L. For the same molecule, the minimal inhibitory concentration (MIC) with Bacillus pumilus is 4 mg/L (≈ 9.61 µM); with Staphylococcus aureus [4] it was greater than 64 mg/L.
As to `CCCCc1ccc(-n2nc(COc3ccc(F)c(C(N)=O)c3F)oc2=O)cc1`, the MIC with Staphylococcus aureus [1] is greater than 64 mg/L; with Escherichia coli it was greater than 64 mg/L; against Bacillus subtilis, 0.015 mg/L (≈ 0.0372 µM); in the test on Staphylococcus aureus [2], 2 mg/L (≈ 4.96 µM); against Staphylococcus aureus [3] it was 64 mg/L (≈ 159 µM); in the test with Pseudomonas aeruginosa, greater than 64 mg/L. Besides, the MIC against Bacillus pumilus is 0.5 mg/L (≈ 1.24 µM); in the test with Staphylococcus aureus [4] it was greater than 64 mg/L.
For the molecule `NC(=O)c1c(F)ccc(OCc2nn(Cc3ccc(Cl)cc3)c(=O)o2)c1F`, the MIC in the test with Staphylococcus aureus [1] was greater than 64 mg/L; against Escherichia coli it was greater than 64 mg/L; against Bacillus subtilis, 8 mg/L (≈ 20.2 µM); with Staphylococcus aureus [2], greater than 64 mg/L; in the test on Staphylococcus aureus [3], 64 mg/L (≈ 162 µM); against Pseudomonas aeruginosa it was greater than 64 mg/L. Besides, the minimum inhibitory concentration (MIC) against Bacillus pumilus was 32 mg/L (≈ 80.9 µM); against Staphylococcus aureus [4] it was greater than 64 mg/L.
With `NC(=O)c1c(F)ccc(OCCc2nn(-c3ccc(Br)cc3)c(=O)o2)c1F`, the MIC is 4 mg/L (≈ 9.09 µM) against Staphylococcus aureus [1]; greater than 64 mg/L against Escherichia coli; 1 mg/L (≈ 2.27 µM) in the test on Bacillus subtilis; 4 mg/L (≈ 9.09 µM) against Staphylococcus aureus [2]; 2 mg/L (≈ 4.54 µM) against Staphylococcus aureus [3]; greater than 64 mg/L in the test on Pseudomonas aeruginosa. Besides, the MIC with Bacillus pumilus was no more than 0.125 mg/L; against Staphylococcus aureus [4] it was 4 mg/L (≈ 9.09 µM).
Regarding `N#Cc1ccc(-n2nc(COc3ccc(F)c(C(N)=O)c3F)oc2=O)cc1`, the minimal inhibitory concentration (MIC) is 8 mg/L (≈ 21.5 µM) with Staphylococcus aureus [1]; greater than 64 mg/L in the test with Escherichia coli; 2 mg/L (≈ 5.37 µM) against Bacillus subtilis; 16 mg/L (≈ 43 µM) in the test with Staphylococcus aureus [2]; 4 mg/L (≈ 10.7 µM) in the test on Staphylococcus aureus [3]; greater than 64 mg/L with Pseudomonas aeruginosa. Moreover, the MIC with Bacillus pumilus and against Staphylococcus aureus [4] was 4 mg/L (≈ 10.7 µM) in each case.
For the molecule `NC(=O)c1c(F)ccc(OCc2nn(-c3ccc(C(F)(F)F)cc3)c(=O)o2)c1F`, the MIC with Staphylococcus aureus [1] was 4 mg/L (≈ 9.63 µM); in the test with Escherichia coli, greater than 64 mg/L; in the test on Bacillus subtilis it was 0.125 mg/L (≈ 0.301 µM); against Staphylococcus aureus [2], 4 mg/L (≈ 9.63 µM); against Staphylococcus aureus [3], 2 mg/L (≈ 4.82 µM); against Pseudomonas aeruginosa, greater than 64 mg/L. Also, the MIC is 2 mg/L (≈ 4.82 µM) in the test on Bacillus pumilus and 4 mg/L (≈ 9.63 µM) against Staphylococcus aureus [4].
Take `NC(=O)c1c(F)ccc(OCc2nn(-c3ccccc3)c(=O)o2)c1F`: the MIC against Staphylococcus aureus [1] is 32 mg/L (≈ 92.1 µM); in the test on Escherichia coli, greater than 64 mg/L; with Bacillus subtilis, 4 mg/L (≈ 11.5 µM); in the test on Staphylococcus aureus [2], 16 mg/L (≈ 46.1 µM); in the test with Staphylococcus aureus [3], 16 mg/L (≈ 46.1 µM); against Pseudomonas aeruginosa, greater than 64 mg/L. The MIC in the test on Bacillus pumilus came to 64 mg/L (≈ 184 µM); against Staphylococcus aureus [4], 16 mg/L (≈ 46.1 µM).
As for `NC(=O)c1c(F)ccc(OCc2nn(-c3ccc(Cl)cc3)c(=O)o2)c1F`, the MIC against Staphylococcus aureus [1] is 2 mg/L (≈ 5.24 µM); in the test on Escherichia coli it was greater than 64 mg/L; with Bacillus subtilis, 0.25 mg/L (≈ 0.655 µM); in the test on Staphylococcus aureus [2], 2 mg/L (≈ 5.24 µM); against Staphylococcus aureus [3], 2 mg/L (≈ 5.24 µM); against Pseudomonas aeruginosa it was greater than 64 mg/L. Also, the results for the MIC in the test on Bacillus pumilus and in the test with Staphylococcus aureus [4] were 2 mg/L (≈ 5.24 µM) and 1 mg/L (≈ 2.62 µM), respectively.
As to `CC(C)(C)n1nc(COc2ccc(F)c(C(N)=O)c2F)oc1=O`, the MIC against Staphylococcus aureus [1] was greater than 64 mg/L; against Escherichia coli, greater than 64 mg/L; with Bacillus subtilis it was 32 mg/L (≈ 97.8 µM); in the test on Staphylococcus aureus [2] it was 16 mg/L (≈ 48.9 µM); in the test with Staphylococcus aureus [3] it was greater than 64 mg/L; with Pseudomonas aeruginosa, greater than 64 mg/L. The minimal inhibitory concentration (MIC) in the test on Bacillus pumilus and in the test on Staphylococcus aureus [4] was greater than 64 mg/L each time.
For `Cc1ccc(-n2nc(COc3ccc(F)c(C(N)=O)c3F)oc2=O)cc1`, the minimum inhibitory concentration (MIC) against Staphylococcus aureus [1] is 4 mg/L (≈ 11.1 µM); in the test with Escherichia coli, greater than 64 mg/L; in the test on Bacillus subtilis, 0.5 mg/L (≈ 1.38 µM); with Staphylococcus aureus [2], 4 mg/L (≈ 11.1 µM); in the test on Staphylococcus aureus [3], 4 mg/L (≈ 11.1 µM); in the test with Pseudomonas aeruginosa, greater than 64 mg/L. The results for the MIC in the test with Bacillus pumilus and against Staphylococcus aureus [4] were 8 mg/L (≈ 22.1 µM) and 4 mg/L (≈ 11.1 µM), respectively.
Regarding `Cc1ccccc1-n1nc(COc2ccc(F)c(C(N)=O)c2F)oc1=O`, the minimal inhibitory concentration (MIC) is greater than 64 mg/L in the test with Staphylococcus aureus [1]; greater than 64 mg/L in the test with Escherichia coli; 16 mg/L (≈ 44.3 µM) against Bacillus subtilis; greater than 64 mg/L in the test on Staphylococcus aureus [2]; 64 mg/L (≈ 177 µM) against Staphylococcus aureus [3]; greater than 64 mg/L against Pseudomonas aeruginosa. Moreover, the minimum inhibitory concentration (MIC) is 16 mg/L (≈ 44.3 µM) against Bacillus pumilus and greater than 64 mg/L with Staphylococcus aureus [4].
In the case of `COc1ccc(-n2nc(COc3ccc(F)c(C(N)=O)c3F)oc2=O)cc1`, the minimal inhibitory concentration (MIC) is 4 mg/L (≈ 10.6 µM) against Staphylococcus aureus [1]; greater than 64 mg/L in the test with Escherichia coli; 1 mg/L (≈ 2.65 µM) with Bacillus subtilis; 4 mg/L (≈ 10.6 µM) against Staphylococcus aureus [2]; 4 mg/L (≈ 10.6 µM) with Staphylococcus aureus [3]; greater than 64 mg/L in the test with Pseudomonas aeruginosa. Besides, the MIC in the test with Bacillus pumilus stood at 8 mg/L (≈ 21.2 µM); in the test on Staphylococcus aureus [4], 2 mg/L (≈ 5.3 µM).
Take `Cc1ccc(-c2nn(COc3ccc(F)c(C(N)=O)c3F)c(=O)o2)cc1`: the minimum inhibitory concentration (MIC) in the test on Staphylococcus aureus [1], against Escherichia coli, in the test on Bacillus subtilis, with Staphylococcus aureus [2], against Staphylococcus aureus [3] and in the test on Pseudomonas aeruginosa was greater than 64 mg/L in each case. Also, the MIC against Bacillus pumilus and against Staphylococcus aureus [4] was greater than 64 mg/L each time.
For `CC(C)c1ccc(-n2nc(COc3ccc(F)c(C(N)=O)c3F)oc2=O)cc1`, the MIC with Staphylococcus aureus [1] was 32 mg/L (≈ 82.2 µM); in the test on Escherichia coli, greater than 64 mg/L; with Bacillus subtilis, 1 mg/L (≈ 2.57 µM); with Staphylococcus aureus [2], 16 mg/L (≈ 41.1 µM); with Staphylococcus aureus [3], 16 mg/L (≈ 41.1 µM); in the test on Pseudomonas aeruginosa it was greater than 64 mg/L. Moreover, the MIC against Bacillus pumilus worked out at 2 mg/L (≈ 5.14 µM); against Staphylococcus aureus [4], 16 mg/L (≈ 41.1 µM).
Take `CC(C)(C)c1ccc(-n2nc(CCOc3ccc(F)c(C(N)=O)c3F)oc2=O)cc1`: the MIC was 4 mg/L (≈ 9.58 µM) against Staphylococcus aureus [1]; greater than 64 mg/L against Escherichia coli; 0.25 mg/L (≈ 0.599 µM) against Bacillus subtilis; 2 mg/L (≈ 4.79 µM) in the test on Staphylococcus aureus [2]; 1 mg/L (≈ 2.4 µM) against Staphylococcus aureus [3]; greater than 64 mg/L against Pseudomonas aeruginosa. Also, the minimal inhibitory concentration (MIC) against Bacillus pumilus was no more than 0.125 mg/L; in the test with Staphylococcus aureus [4], 4 mg/L (≈ 9.58 µM).
